Format in all cases: binding
In assay [1] the target is T1, HeLa cell extract proteins (Homo sapiens, UniProt O00571).
T1 construct: endogenous in cells; host or cells: HeLa cell extract

Assay [2] deals with T2, HeLa cell extract proteins (Homo sapiens, UniProt O43175).
T2 construct: endogenous in cells; host or cells: HeLa cell extract
T2 sequence (O43175 1-533): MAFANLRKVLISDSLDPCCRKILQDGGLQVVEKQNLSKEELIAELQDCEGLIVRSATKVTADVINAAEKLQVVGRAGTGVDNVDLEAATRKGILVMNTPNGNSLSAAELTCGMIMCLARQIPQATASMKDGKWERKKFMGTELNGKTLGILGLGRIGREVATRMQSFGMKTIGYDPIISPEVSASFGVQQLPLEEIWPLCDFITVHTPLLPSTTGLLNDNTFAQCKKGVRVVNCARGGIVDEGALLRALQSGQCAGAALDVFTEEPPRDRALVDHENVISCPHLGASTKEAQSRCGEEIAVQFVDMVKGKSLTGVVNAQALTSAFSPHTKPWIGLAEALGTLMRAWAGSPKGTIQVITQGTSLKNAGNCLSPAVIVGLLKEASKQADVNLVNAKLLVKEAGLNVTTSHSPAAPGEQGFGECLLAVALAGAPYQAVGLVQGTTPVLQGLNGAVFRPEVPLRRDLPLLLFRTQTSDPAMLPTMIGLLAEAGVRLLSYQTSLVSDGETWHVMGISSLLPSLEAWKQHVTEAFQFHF

Assay [3] deals with T3, HeLa cell extract proteins (Homo sapiens, UniProt P16219).
T3 construct: endogenous in cells; host or cells: HeLa cell extract
T3 sequence (P16219 25-412): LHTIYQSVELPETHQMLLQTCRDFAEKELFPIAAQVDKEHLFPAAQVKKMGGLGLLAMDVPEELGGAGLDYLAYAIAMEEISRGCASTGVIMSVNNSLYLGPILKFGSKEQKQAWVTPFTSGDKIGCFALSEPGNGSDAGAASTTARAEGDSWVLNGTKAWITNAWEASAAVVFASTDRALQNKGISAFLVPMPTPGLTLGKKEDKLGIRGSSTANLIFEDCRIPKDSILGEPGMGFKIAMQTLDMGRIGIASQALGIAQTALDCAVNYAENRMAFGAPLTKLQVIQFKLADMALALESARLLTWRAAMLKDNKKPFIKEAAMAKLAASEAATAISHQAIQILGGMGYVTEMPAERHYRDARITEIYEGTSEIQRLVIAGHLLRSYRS

For assay [4], the target named is T4, HeLa cell extract proteins (Homo sapiens, UniProt Q9HB71).
T4 construct: endogenous in cells; host or cells: HeLa cell extract
T4 sequence (Q9HB71 whole entry): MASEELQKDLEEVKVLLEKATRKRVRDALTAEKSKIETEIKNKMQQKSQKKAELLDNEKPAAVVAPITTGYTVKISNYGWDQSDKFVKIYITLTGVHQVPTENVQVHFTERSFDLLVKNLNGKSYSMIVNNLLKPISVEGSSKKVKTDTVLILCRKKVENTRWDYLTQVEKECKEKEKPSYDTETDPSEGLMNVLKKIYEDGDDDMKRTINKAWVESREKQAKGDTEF

Assay [5] has as its target T5, HeLa cell extract proteins (Homo sapiens, UniProt P52907).
T5 construct: endogenous in cells; host or cells: HeLa cell extract

The target of assay [6] is T6, HeLa cell extract proteins (Homo sapiens, UniProt Q93100).
T6 construct: endogenous in cells; host or cells: HeLa cell extract
T6 sequence (Q93100 1-1093): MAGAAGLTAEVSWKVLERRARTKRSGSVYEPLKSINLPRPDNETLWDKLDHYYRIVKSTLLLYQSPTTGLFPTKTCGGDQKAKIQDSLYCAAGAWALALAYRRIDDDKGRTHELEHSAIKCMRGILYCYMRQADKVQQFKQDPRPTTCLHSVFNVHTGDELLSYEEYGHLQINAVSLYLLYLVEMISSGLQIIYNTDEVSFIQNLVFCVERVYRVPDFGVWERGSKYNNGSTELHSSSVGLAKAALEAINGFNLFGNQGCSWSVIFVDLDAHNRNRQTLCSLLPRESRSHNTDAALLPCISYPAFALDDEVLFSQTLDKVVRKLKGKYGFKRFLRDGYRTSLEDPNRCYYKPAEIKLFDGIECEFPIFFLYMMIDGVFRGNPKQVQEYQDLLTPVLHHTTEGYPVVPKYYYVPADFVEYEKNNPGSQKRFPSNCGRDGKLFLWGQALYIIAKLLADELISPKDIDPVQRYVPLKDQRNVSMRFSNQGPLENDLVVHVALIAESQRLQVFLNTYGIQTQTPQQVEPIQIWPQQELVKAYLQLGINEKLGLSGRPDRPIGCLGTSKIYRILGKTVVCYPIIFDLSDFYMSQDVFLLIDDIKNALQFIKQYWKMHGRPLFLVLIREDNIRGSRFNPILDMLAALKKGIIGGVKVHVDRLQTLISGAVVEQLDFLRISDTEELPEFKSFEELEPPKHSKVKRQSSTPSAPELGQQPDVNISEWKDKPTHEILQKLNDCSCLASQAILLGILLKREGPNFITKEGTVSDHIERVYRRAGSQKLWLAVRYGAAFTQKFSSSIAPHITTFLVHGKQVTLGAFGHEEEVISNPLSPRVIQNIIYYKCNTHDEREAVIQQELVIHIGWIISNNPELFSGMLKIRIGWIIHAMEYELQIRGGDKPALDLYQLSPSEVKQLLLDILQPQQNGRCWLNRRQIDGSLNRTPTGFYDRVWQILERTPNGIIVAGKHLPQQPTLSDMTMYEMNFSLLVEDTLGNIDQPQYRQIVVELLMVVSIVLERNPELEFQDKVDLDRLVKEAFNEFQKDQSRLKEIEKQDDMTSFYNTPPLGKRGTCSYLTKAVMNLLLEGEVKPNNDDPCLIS

For assay [7], the target named is T7, HeLa cell extract proteins (Homo sapiens, UniProt P13995).
T7 construct: endogenous in cells; host or cells: HeLa cell extract
T7 sequence (P13995 36-350): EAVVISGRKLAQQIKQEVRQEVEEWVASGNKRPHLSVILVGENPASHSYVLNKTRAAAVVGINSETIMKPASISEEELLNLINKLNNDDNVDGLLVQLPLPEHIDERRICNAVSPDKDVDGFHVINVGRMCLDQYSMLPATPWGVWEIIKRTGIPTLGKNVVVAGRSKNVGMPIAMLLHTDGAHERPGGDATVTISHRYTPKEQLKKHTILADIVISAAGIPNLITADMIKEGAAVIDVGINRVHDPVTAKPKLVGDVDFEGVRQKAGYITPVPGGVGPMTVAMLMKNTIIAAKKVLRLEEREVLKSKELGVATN

Assay [8] deals with T8, HeLa cell extract proteins (Homo sapiens, UniProt P09497).
T8 construct: endogenous in cells; host or cells: HeLa cell extract
T8 sequence (P09497 1-229): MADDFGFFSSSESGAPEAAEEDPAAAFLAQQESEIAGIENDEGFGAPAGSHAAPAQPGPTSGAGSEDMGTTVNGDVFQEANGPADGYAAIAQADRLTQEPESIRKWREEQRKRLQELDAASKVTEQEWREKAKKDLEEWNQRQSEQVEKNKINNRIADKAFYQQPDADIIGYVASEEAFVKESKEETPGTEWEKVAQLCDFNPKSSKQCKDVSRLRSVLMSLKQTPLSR

[9] abbreviates: HeLa, protein ACADS (SHORT-CHAIN SPECIFIC ACYL-COA DEHYDROGENASE, MIT[…]).
Where [10] appears, read: HeLa, protein CACYBP (ISOFORM 1 OF CALCYCLIN-BINDING PROTEIN).

This is an account of results in paper PMC6199744, “Development of Chemical Proteomics for the Folateome and Analysis of the Kinetoplastid Folateome” (ACS Infectious Diseases, 2018).

Read-outs that look alike come from different tables or passages of the source.

T1 sequence (O00571 whole entry): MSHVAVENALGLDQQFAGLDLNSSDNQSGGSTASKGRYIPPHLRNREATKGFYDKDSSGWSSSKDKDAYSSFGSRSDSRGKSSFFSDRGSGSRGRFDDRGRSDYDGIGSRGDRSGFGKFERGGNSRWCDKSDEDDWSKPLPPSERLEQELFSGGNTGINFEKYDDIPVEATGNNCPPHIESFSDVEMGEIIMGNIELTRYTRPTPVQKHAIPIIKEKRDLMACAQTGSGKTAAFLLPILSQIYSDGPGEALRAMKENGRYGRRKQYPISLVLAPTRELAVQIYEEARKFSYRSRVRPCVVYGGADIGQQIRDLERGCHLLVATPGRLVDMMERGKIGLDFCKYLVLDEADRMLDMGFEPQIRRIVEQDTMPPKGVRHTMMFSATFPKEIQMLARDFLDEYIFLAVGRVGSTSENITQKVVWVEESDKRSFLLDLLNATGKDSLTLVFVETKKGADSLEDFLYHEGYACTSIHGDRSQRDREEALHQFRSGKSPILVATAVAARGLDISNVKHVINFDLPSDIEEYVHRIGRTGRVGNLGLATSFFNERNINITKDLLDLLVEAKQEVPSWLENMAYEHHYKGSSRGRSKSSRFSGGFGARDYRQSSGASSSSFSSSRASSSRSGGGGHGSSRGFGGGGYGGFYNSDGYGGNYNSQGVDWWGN

Take `Nc1nc2cccc(-c3ccccc3)c2n1Cc1ccc(Cl)c(Cl)c1` [compound 3]: the “fold changes relative to vehicle control” value in assay [1] (protein DDX3X, HeLa) is 0.94; in assay [2] (protein PHGDH, HeLa), 1.5; in assay [3] (protein ACADS, HeLa) it was 0.99; in assay [4] (protein CACYBP, HeLa), 0.93; in assay [5] (protein CAPZA1, HeLa), 1.15; in assay [6] (captured protein PHKB, HeLa), 1.19. Moreover, the “fold changes relative to vehicle control” value in assay [7] (protein MTHFD2, HeLa) amounted to 1.03; in assay [8] (HeLa, protein CLTB), 0.94.

With `NCCOCCOCC(=O)Nc1nc2ncc(CNc3ccc(C(=O)NC(CCC(=O)O)C(=O)O)cc3)nc2c(=O)[nH]1` (centres unmarked) [compound 6], the “fold changes relative to vehicle control” value is reported as 0.9 in assay [1] (HeLa, captured protein DDX3X); 1.06 in assay [2] (protein PHGDH, HeLa); 1.07 in assay [3] (setting [9]); 1.16 in assay [4] (setting [10]); 1.11 in assay [5] (HeLa, protein CAPZA1); 1.04 in assay [6] (HeLa, protein PHKB). Besides, the “fold changes relative to vehicle control” value is 1.06 in assay [7] (HeLa, captured protein MTHFD2) and 1.23 in assay [8] (HeLa, captured protein CLTB).

Regarding `Nc1nc2[nH]cc(CCc3ccc(C(=O)N[C@@H](CCC(=O)O)C(=O)O)cc3)c2c(=O)[nH]1` [PTX, pemetrexed], the “fold changes relative to vehicle control” value in assay [1] came out at 0.86; in assay [2] it was 0.93; in assay [3], 1.09; in assay [4] it was 1; in assay [5], 1.02; in assay [6], 1.02. The results for the “fold changes relative to vehicle control” value in assay [7] and in assay [8] were 1.05 and 1.2, respectively.

Take `Nc1nc2c(c(=O)[nH]1)N(C=O)C(CNc1ccc(C(=O)N[C@@H](CCC(=O)O)C(=O)O)cc1)CN2` (some centres unmarked) [LEU, leucovorin]: the “fold changes relative to vehicle control” value in assay [1] (HeLa, captured protein DDX3X) was 0.94; in assay [2] (protein PHGDH, HeLa), 0.88; in assay [3] (setting [9]), 1.06; in assay [4] (setting [10]), 0.85; in assay [5] (HeLa, protein CAPZA1) it was 0.89; in assay [6] (HeLa, protein PHKB), 1. The “fold changes relative to vehicle control” value in assay [7] (HeLa, captured protein MTHFD2) is 0.7; in assay [8] (HeLa, captured protein CLTB), 0.99.

With `CCCCCCOc1ccc(Cc2cnc(N)nc2N)cc1` [compound 1], the “fold changes relative to vehicle control” value in assay [1] (protein DDX3X, HeLa) came out at 0.96; in assay [2] (protein PHGDH, HeLa), 0.99; in assay [3] (protein ACADS, HeLa), 0.91; in assay [4] (protein CACYBP, HeLa) it was 1.12; in assay [5] (protein CAPZA1, HeLa), 1.13; in assay [6] (captured protein PHKB, HeLa), 0.86. In addition, the “fold changes relative to vehicle control” value in assay [7] (protein MTHFD2, HeLa) was determined as 0.09; in assay [8] (HeLa, protein CLTB) it was 0.82.

Regarding `NCCCNc1ccc(C(=O)NC(CCC(=O)O)C(=O)O)cc1` (centres unmarked) [compound 7], the “fold changes relative to vehicle control” value in assay [1] (HeLa, captured protein DDX3X) is listed as 0.93; in assay [2] (protein PHGDH, HeLa) it was 1.06; in assay [3] (setting [9]), 1.04; in assay [4] (setting [10]), 1.16; in assay [5] (HeLa, protein CAPZA1), 1.09; in assay [6] (HeLa, protein PHKB) it was 1.08. Besides, the “fold changes relative to vehicle control” value is reported as 1.02 in assay [7] (HeLa, captured protein MTHFD2) and 1.14 in assay [8] (HeLa, captured protein CLTB).

In the case of `CCCCCCOc1cccc(Cc2cnc(N)nc2N)c1` [compound 2], the “fold changes relative to vehicle control” value in assay [1] (protein DDX3X, HeLa) is given as 1.05; in assay [2] (protein PHGDH, HeLa), 1.25; in assay [3] (protein ACADS, HeLa), 1.1; in assay [4] (protein CACYBP, HeLa) it was 1.37; in assay [5] (protein CAPZA1, HeLa) it was 1.32; in assay [6] (captured protein PHKB, HeLa) it was 1.09. For the same compound, the “fold changes relative to vehicle control” value in assay [7] (protein MTHFD2, HeLa) amounted to 0.95; in assay [8] (HeLa, protein CLTB), 1.18.
